Key:
topoisomerase I = target: T1, topoisomerase I (Homo sapiens, UniProt P11387); experiment: Topoisomerase I inhibition, pBR322 DNA relaxation; assay type: biochemical; details: 37° C., 30 minutes
T1 construct: purchased TopoGEN
T1 sequence (P11387 1-765): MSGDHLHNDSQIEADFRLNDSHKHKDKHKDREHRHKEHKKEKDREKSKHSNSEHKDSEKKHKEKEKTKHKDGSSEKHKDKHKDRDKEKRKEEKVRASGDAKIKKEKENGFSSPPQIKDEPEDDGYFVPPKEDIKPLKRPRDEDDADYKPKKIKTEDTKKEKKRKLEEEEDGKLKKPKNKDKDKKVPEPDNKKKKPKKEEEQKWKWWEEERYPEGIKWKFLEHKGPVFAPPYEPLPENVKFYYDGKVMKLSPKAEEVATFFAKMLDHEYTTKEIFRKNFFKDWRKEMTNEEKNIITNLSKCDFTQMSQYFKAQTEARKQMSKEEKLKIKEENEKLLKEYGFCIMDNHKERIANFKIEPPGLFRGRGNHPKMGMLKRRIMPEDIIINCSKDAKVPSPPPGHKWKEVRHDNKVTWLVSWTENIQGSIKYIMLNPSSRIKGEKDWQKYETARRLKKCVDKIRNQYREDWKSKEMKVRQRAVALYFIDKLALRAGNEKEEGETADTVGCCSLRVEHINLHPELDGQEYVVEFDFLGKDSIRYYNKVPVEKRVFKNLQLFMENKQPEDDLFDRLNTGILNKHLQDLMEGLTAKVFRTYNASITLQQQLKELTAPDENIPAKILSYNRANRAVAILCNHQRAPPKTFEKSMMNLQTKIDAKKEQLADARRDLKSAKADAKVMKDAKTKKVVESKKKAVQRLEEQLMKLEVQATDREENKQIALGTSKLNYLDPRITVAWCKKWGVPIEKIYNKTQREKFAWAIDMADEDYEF
Procedure: (1) 2 μl of topoisomerase II (TopoGEN; 2 units/μl), 2 μl of 10-fold concentrated buffer [0.5 M Tris-HCl (pH 8.0), 1.2 M KCl, 0.1 M MgCl2, 2.5 mM adenosine triphosphate, 5 mM dithiothreitol], 2 μl of 0.1% bovine serum albumin (Takara Shuzo), 11 μl of distilled water and 2 μl of distilled water (control) or 2 μl of one of aqueous solutions of dipropionylcyclopentenone, diisobutyrylcyclopentenone, dibenzoylcyclopentenone, dihexanoylcyclopentenone, di-2-hexenoylcyclopentenone, dimethoxyacetylcyclopentenone, dimethylfumarylcyclopentenone or dimethylmaleylcyclopentenone at varying concentrations were mixed together. 1 μl of 0.25 μg/μl pBR322 DNA (Takara Shuzo) was added thereto. The resulting mixture was reacted at 37° C. After reacting for 30 minutes, 2 μl of an aqueous solution containing 1% sodium dodecyl sulfate, 50% glycerol and 0.02% Bromophenol Blue was added thereto to stop the reaction. […]
(2) The activity of inhibiting topoisomerase I of each of the cyclopentenone derivatives was determined as described in Example 3-(1) except that topoisomerase I (TopoGEN; 0.01 unit/μl) was used in place of topoisomerase II and a solution containing 100 mM Tris-HCl (pH 7.9), 10 mM EDTA, 1 mM spermidine and 50% glycerol was used as 10-fold concentrated buffer.

[1] = tested on: λ-carrageenan pedal edema; experiment: Carrageenan induced pedal edema; assay type: in vivo, Lewis rats; details: rat, 3 hours after carrageenan
Procedure: Lewis rats (male, 9 weeks old, weighing about 250 g) were purchased from Seac Yoshitomi.
Rats were fasted from 18 hours before the start of the experiments. Dipropionylcyclopentenone, dihexanoylcyclopentenone, di-2-hexenoylcyclopentenone, diisobutyrylcyclopentenone or dibenzoylcyclopentenone dissolved in olive oil (Nacalai Tesque) was orally administered to 4 rats per group at 1 or 10 mg/10 ml/kg.
100 μl of 1% λ-carrageenan (Wako Pure Chemical Industries) suspension in saline (Otsuka Pharmaceutical) was injected into the sole of right paw of a rat 0.5 hour after the administration of test substance to induce pedal edema. The volume of the right foot of the rat was measured using an instrument for measuring pedal volume (Ugo Basile) 3 hours after the injection with carrageenan. The measurements were expressed as the rate of increase calculated based on the volume of the right foot of each rat measured before the administration with carrageenan.
FIG. 5 illustrate the relationship between the amount of cyclopentenone derivative administered and the rate of increase in edema in foot. The horizontal axis represents the dose […] and the vertical axis represents the rate of increase (%).

[2] = Single oral dose toxicity; assay type: in vivo; details: mouse, oral, single dosage of 100 mg/kg
Procedure: No toxicity is observed when a physiologically effective amount of the cyclopentenone derivative or an optical isomer thereof, or a salt thereof obtained according to the present invention is administered.

HSP70 = details: cited from earlier work

With `O=C(OC1C=CC(=O)C1OC(=O)c1ccccc1)c1ccccc1` (centres unmarked) the “Concentration at which change of DNA from superhelical type to relaxed type was partially or completely inhibited” value (topoisomerase I) was at least 50 µM, the “Suppression of edema in foot (FIG. 5)” value ([1]; 1 mg/kg oral) was “Tendency of suppression” and the “Suppression of edema in foot (FIG. 5)” value ([1]; 10 mg/kg oral) was “significant suppression”. For the same compound, the “Death after single oral administration” value [2] was “no death was observed”.
In the case of `O=C1C=CCC1` [2-cyclopenten-1-one], the “Concentration required for inducing HSP70” value (HSP70) is given as “several hundred”.
